Measurements: patent US9688683B2, “Substituted condensed pyrimidine compounds” (GRÜNENTHAL GMBH, priority 2013, dated 2017)

The molecules below were run against human PDE4B1 (Homo sapiens (Human), UniProt Q07343) (assay: cAMP HTRF assay to determine the activity of hPDE4B1). Settings: human recombinant PDE4B1 expressed in Sf9 cells; cAMP 40 nM; N=1-2, n=2; read-out: PDE4B IC50-value.
Type: biochemical
Procedure: A: Determination of the PDE4B IC50 Values with a cAMP HRTF® Assay to Determine the Activity of hPDE4B1
The inhibiting effect of the compounds on the enzyme activity of human PDE4B1 is measured by the quantification of 5′-AMP, which is formed from 3′,5′-adenosine monophosphate (cAMP). Human recombinant enzyme, expressed in Sf9 cells, and the HTRF (homogeneous time-resolved fluorescence) detection method are used in the assay.
The test compound or water (control) is mixed with the human recombinant PDE4B1 enzyme (4.8 U) in a buffer consisting of 44.4 mM tris-HCl, 5.28 mM MgCl2, 2.64 mM DTT and 0.044% Tween 20 (pH 7.8). After adding the cAMP enzyme substrate (final concentration 40 nM) the mixture is incubated for 30 minutes at room temperature. Then a fluorescence acceptor (Dye2 marked with cAMP), a fluorescence donor (anti-cAMP antibody marked with a europium cryptate) and the non-specific phosphodiesterase inhibitor IBMX (3-isobutyl-1-methylxanthine; final concentration 1 mM) are added. After 60 minutes the fluorescence transfer, which correlates with the amount of remaining cAMP, is measured with a microplate reader (Rubystar, BMG) at λex=337 nm, λem=620 nm and λem=665 nm. The enzyme activity is calculated from the quotient formed from the measured signal at 665 nm and that at 620 nm. The result is expressed as the percentage inhibition of enzyme activity of the control (without PDE4 inhibitor) (literature: N. Saldou et al., Comparison of recombinant human PDE4 isoforms: interaction with substrate and inhibitors, Cell. Signal. Vol. 10, No. 6, 427-440, 1998). The enzyme is omitted for measurement of the basal control.

Sequence of human PDE4B1 (Q07343 whole entry): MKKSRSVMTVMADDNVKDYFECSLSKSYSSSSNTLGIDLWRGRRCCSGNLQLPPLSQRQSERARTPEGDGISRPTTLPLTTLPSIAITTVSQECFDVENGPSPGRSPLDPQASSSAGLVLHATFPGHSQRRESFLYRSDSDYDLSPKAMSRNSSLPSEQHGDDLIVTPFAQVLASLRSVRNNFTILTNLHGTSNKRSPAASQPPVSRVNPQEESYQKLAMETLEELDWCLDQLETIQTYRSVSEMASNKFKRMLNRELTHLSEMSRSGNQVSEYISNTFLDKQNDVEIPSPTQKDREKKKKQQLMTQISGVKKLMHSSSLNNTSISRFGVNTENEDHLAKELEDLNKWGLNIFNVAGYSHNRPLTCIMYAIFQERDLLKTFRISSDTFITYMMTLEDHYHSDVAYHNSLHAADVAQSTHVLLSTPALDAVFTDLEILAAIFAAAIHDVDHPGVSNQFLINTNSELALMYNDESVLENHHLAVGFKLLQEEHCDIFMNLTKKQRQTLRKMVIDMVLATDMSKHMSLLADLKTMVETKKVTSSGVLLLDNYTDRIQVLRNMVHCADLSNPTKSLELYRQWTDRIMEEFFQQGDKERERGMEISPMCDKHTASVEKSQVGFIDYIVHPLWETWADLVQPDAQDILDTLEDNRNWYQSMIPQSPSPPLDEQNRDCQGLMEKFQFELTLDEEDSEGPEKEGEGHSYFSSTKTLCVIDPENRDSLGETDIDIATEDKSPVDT

Compound | IC50 [nM]
CCc1nc(-c2ccc(OC)c(F)c2)nc2c1CCN2c1ccc(C(=O)O)cc1 [Compound 6, 4-(4-ethyl-2-(3-fluoro-4-methoxyphenyl)-5H-pyrrolo[2,3-d]pyrimidin-7(6H)-yl)benzoic acid] | 1000 to 10000
CCc1nc(-c2ccc(Cl)s2)nc2c1CCN2c1cccc(OCC(=O)N(C)C)c1 [Compound 40, 2-(3-(2-(5-chlorothiophen-2-yl)-4-ethyl-5H-pyrrolo[2,3-d]pyrimidin-7(6H)-yl)phenoxy)-N,N-dimethylacetamide] | < 1000
COc1ccc(-c2nc(OC)c3ccn(-c4ccc(C(=O)O)cc4)c3n2)cc1Cl [Compound 45, 4-(2-(3-chloro-4-methoxyphenyl)-4-methoxy-7H-pyrrolo[2,3-d]pyrimidin-7-yl)benzoic acid] | 1000 to 10000
CCc1nc(-c2ccc(Cl)s2)nc2c1CCN2c1ccc(C(=O)O)cc1 [Compound 46, 4-(2-(5-chlorothiophen-2-yl)-4-ethyl-5H-pyrrolo[2,3-d]pyrimidin-7(6H)-yl)benzoic acid] | < 1000
CCc1nc(-c2ccc(OC)c(F)c2)nc2c1CCN2c1cccc(OCC(=O)NC2COC2)c1 [Compound 47, 2-(3-(4-ethyl-2-(3-fluoro-4-methoxyphenyl)-5H-pyrrolo[2,3-d]pyrimidin-7(6H)-yl)phenoxy)-N-(oxetan-3-yl)acetamide] | 1000 to 10000
COc1ccc(-c2nc(S(C)(=O)=O)c3ccn(-c4cccc(OCC(=O)N(C)C)c4)c3n2)cc1F [Compound 50, 2-(3-(2-(3-fluoro-4-methoxyphenyl)-4-(methylsulfonyl)-7H-pyrrolo[2,3-d]pyrimidin-7-yl)phenoxy)-N,N-dimethylacetamide] | 1000 to 10000
CCc1nc(-c2ccc(OC)c(F)c2)nc2c1CCN2c1cccc(OCC(=O)N(C)CC2CC2)c1 [Compound 51, N-(cyclopropylmethyl)-2-(3-(4-ethyl-2-(3-fluoro-4-methoxyphenyl)-5H-pyrrolo[2,3-d]pyrimidin-7(6H)-yl)phenoxy)-N-methylacetamide] | 1000 to 10000
COc1ccc(-c2nc(SC)c3ccn(-c4ccc(CC(=O)O)cc4)c3n2)cc1F [Compound 69, 2-(4-(2-(3-fluoro-4-methoxyphenyl)-4-(methylthio)-7H-pyrrolo[2,3-d]pyrimidin-7-yl)phenyl)acetic acid] | 1000 to 10000
COc1ccc(-c2nc(C3CC3)c3ccn(-c4cccc(OCC(=O)N(C)C)c4)c3n2)cc1F [Compound 76, 2-(3-(4-cyclopropyl-2-(3-fluoro-4-methoxyphenyl)-7H-pyrrolo[2,3-d]pyrimidin-7-yl)phenoxy)-N,N-dimethylacetamide] | 1000 to 10000
CCc1nc(-c2ccc(OC)nc2)nc2c1ccn2-c1cccc(OCC(=O)N(C)C)c1 [Compound 77, 2-(3-(4-ethyl-2-(6-methoxypyridin-3-yl)-7H-pyrrolo[2,3-d]pyrimidin-7-yl)phenoxy)-N,N-dimethylacetamide] | 1000 to 10000
COc1ccc(-c2ncc3c(n2)N(c2cccc(OCC(=O)N(C)C)c2)CC32CC2)cc1F [Compound 78, 2-(3-(2′-(3-fluoro-4-methoxyphenyl)spiro[cyclopropane-1,5′-pyrrolo[2,3-d]pyrimidin]-7′(6′H)-yl)phenoxy)-N,N-dimethylacetamide] | 1000 to 10000
COc1ccc(-c2nc(C)c3c(n2)N(c2cccc(OCC(=O)N(C)C)c2)CC32CC2)cc1F [Compound 79, 2-(3-(2′-(3-fluoro-4-methoxyphenyl)-4′-methylspiro-[cyclopropane-1,5′-pyrrolo[2,3-d]pyrimidin]-7′(6′H)-yl)phenoxy)-N,N-dimethylacetamide] | 1000 to 10000
CCc1nc(-c2cccnc2OC)nc2c1ccn2-c1cccc(OCC(=O)N(C)C)c1 [Compound 80, 2-(3-(4-ethyl-2-(2-methoxypyridin-3-yl)-7H-pyrrolo[2,3-d]pyrimidin-7-yl)phenoxy)-N,N-dimethylacetamide] | < 1000
CCc1nc(-c2cccc(S(C)(=O)=O)c2)nc2c1ccn2-c1cccc(OCC(=O)N(C)C)c1 [Compound 81, 2-(3-(4-ethyl-2-(3-(methylsulfonyl)phenyl)-7H-pyrrolo[2,3-d]pyrimidin-7-yl)phenoxy)-N,N-dimethylacetamide] | < 1000
CCc1nc(-c2ccncc2)nc2c1ccn2-c1cccc(OCC(=O)N(C)C)c1 [Compound 82, 2-(3-(4-ethyl-2-(pyridin-4-yl)-7H-pyrrolo[2,3-d]pyrimidin-7-yl)phenoxy)-N,N-dimethylacetamide] | < 1000
CCc1nc(-c2cccnc2)nc2c1ccn2-c1cccc(OCC(=O)N(C)C)c1 [Compound 83, 2-(3-(4-ethyl-2-(pyridin-3-yl)-7H-pyrrolo[2,3-d]pyrimidin-7-yl)phenoxy)-N,N-dimethylacetamide] | < 1000

Other lines, results leading:

IC50 [nM] | Compound
< 1000 | COc1ccc(-c2nc(C)c3ccn(-c4ccc(C(=O)O)cc4)c3n2)cc1F [Compound 1, 4-(2-(3-Fluoro-4-methoxyphenyl)-4-methyl-7H-pyrrolo[2,3-d]pyrimidin-7-yl)benzoic acid]
< 1000 | CCc1nc(-c2ccc(OC)c(F)c2)nc2c1ccn2-c1ccc(C(=O)O)cc1 [Compound 2, 4-(4-ethyl-2-(3-fluoro-4-methoxyphenyl)-7H-pyrrolo[2,3-d]pyrimidin-7-yl)benzoic acid]
< 1000 | CCc1nc(-c2ccc(OC)c(F)c2)nc2c1ccn2-c1ccc(CC(=O)O)cc1 [Compound 4, 2,2,2-Trifluoroacetic acid compound with 2-(4-(4-ethyl-2-(3-fluoro-4-methoxyphenyl)-7H-pyrrolo[2,3-d]pyrimidin-7-yl)phenyl)acetic acid (1:1)]
< 1000 | COc1ccc(-c2nc(C)c3c(n2)N(c2ccc(CC(=O)O)cc2)CC3)cc1F [Compound 7, 2-(4-(2-(3-Fluoro-4-methoxyphenyl)-4-methyl-5H-pyrrolo[2,3-d]pyrimidin-7(6H)-yl)phenyl)acetic acid]
< 1000 | CCc1nc(-c2ccc(OC)c(F)c2)nc2c1CCN2c1ccc(CC(=O)O)cc1 [Compound 8, 2-(4-(4-Ethyl-2-(3-fluoro-4-methoxyphenyl)-5H-pyrrolo[2,3-d]pyrimidin-7(6H)-yl)phenyl)-acetic acid]
< 1000 | CCc1nc(-c2ccc(OC)c(F)c2)nc2c1CCN2c1cccc(OCC(=O)N(C)C)c1 [Compound 9, 2-(3-(4-Ethyl-2-(3-fluoro-4-methoxyphenyl)-5H-pyrrolo[2,3-d]pyrimidin-7(6H)-yl)phenoxy)-N,N-dimethylacetamide]
< 1000 | COc1ccc(-c2nc(C)c3c(n2)N(c2ccc(CC(=O)O)cc2)CC3C)cc1F (stereo not shown) [Compound 12, 2,2,2-Trifluoroacetic acid compound with 2-(4-(2-(3-fluoro-4-methoxyphenyl)-4,5-dimethyl-5H-pyrrolo[2,3-d]pyrimidin-7(6H)-yl)phenyl)acetic acid (1:1)]
< 1000 | COc1ccc(-c2nc(C)c3ccn(-c4ccc(C(=O)O)cc4)c3n2)cc1Cl [Compound 14, 4-(2-(3-Chloro-4-methoxyphenyl)-4-methyl-7H-pyrrolo[2,3-d]pyrimidin-7-yl)benzoic acid]
< 1000 | COc1ccc(-c2nc(C)c3ccn(-c4ccc(CC(=O)O)cc4)c3n2)cc1Cl [Compound 16, 2-(4-(2-(3-Chloro-4-methoxyphenyl)-4-methyl-7H-pyrrolo[2,3-d]pyrimidin-7-yl)phenyl)acetic acid]
< 1000 | COc1ccc(-c2nc(C)c3c(n2)N(c2ccc(CC(=O)O)cc2)CC3)cc1Cl [Compound 20, 2-(4-(2-(3-Chloro-4-methoxyphenyl)-4-methyl-5H-pyrrolo[2,3-d]pyrimidin-7(6H)-yl)phenyl)acetic acid]
< 1000 | CCc1nc(-c2ccc(OC)c(Cl)c2)nc2c1CCN2c1ccc(CC(=O)O)cc1 [Compound 21, 2-(4-(2-(3-Chloro-4-methoxyphenyl)-4-ethyl-5H-pyrrolo[2,3-d]pyrimidin-7(6H)-yl)phenyl)acetic acid]
< 1000 | COc1ccc(-c2nc(C)c3c(n2)N(c2ccc(CC(=O)O)cc2)CC3C)cc1Cl (stereo not shown) [Compound 24, 2,2,2-Trifluoroacetic acid compound with 2-(4-(2-(3-chloro-4-methoxyphenyl)-4,5-dimethyl-5H-pyrrolo[2,3-d]pyrimidin-7(6H)-yl)phenyl)acetic acid (1:1)]
< 1000 | Cc1nc(-c2ccc(F)c(F)c2)nc2c1ccn2-c1ccc(C(=O)O)cc1 [Compound 26, 4-(2-(3,4-Difluorophenyl)-4-methyl-7H-pyrrolo[2,3-d]pyrimidin-7-yl)benzoic acid]
< 1000 | Cc1nc(-c2ccc(Cl)s2)nc2c1ccn2-c1ccc(C(=O)O)cc1 [Compound 38, 4-(2-(5-Chlorothiophen-2-yl)-4-methyl-7H-pyrrolo[2,3-d]pyrimidin-7-yl)benzoic acid]
< 1000 | Cc1nc(-c2ccc(Cl)s2)nc2c1CCN2c1ccc(CC(=O)O)cc1 [Compound 39, 2,2,2-Trifluoroacetic acid compound with 2-(4-(2-(5-chlorothiophen-2-yl)-4-methyl-5H-pyrrolo[2,3-d]pyrimidin-7(6H)-yl)phenyl)acetic acid (1:1)]
